Results from patent US20150232509A1, “SPIRO RING COMPOUNDS AS HEPATITIS C VIRUS (HCV) INHIBITORS” (SUNSHINE LAKE PHARMA CO., LTD., priority 2012, published 2015).

Columns and labels:
HCV GT1a replicon cells = test: HCV Replicon assay, GT1a replicon cells (Luciferase / NEO qPCR); format: cell-based; details: Hepatitis C virus, 72 hours incubation, read-out: EC50 against HCV 1a genotype
Method: (§1) An HCV Replicon assay was utilized in the present invention, and was prepared, developed and validated as described in Science, 1999, 285 (5424), 110-3 and J. Virol., 2003, 77 (5), 3007-19.
(§2) HCV GT1a, GT1b and GT2a replicon cells were used to test the currently described compound series as well as wild-type cells HCV 1b and resistant cells Y93H, L31F, P32L and 1302V. […]
(§3) The GT1a cells and GT1b cells were seeded into 96-well plates (8,000 cells in 125 μL/well) respectively; each compound was diluted to desired concentration using 5-fold serial dilutions protocol, 10 doses in duplicate, and added to wells with POD™ 810 Plate Assembler. The final concentration of DMSO was 0.5%; the plates were incubated in a CO2 incubator for 72 hours; after that, 40 μL of Luciferase assay substrate (Promega Bright-Glo) was added to each well, and detected by a chemiluminescence detection system (Topcount Microplate Scintillation and Luminescence Counter) 5 minutes later; data analysis.
(§4) The GT1a cells and GT1b cells were seeded into 96-well plates (8,000 cells in 125 μL/well) respectively; each compound was diluted to desired concentration using 5-fold serial dilutions protocol, 10 doses in duplicate, and added to wells with POD™ 810 Plate Assembler., the final concentration of DMSO was 0.5%; the cells were incubated in a CO2 incubator for 72 hours; quantitative PCR. • Sample preparation: the supernatant was removed, 100 μL of FCW buffer solution was added to each well, washed carefully and discarded the solution; 50 μL of lysate FCP was added to each well, the cells was lysed as PCR template and PCR template was diluted with DEPC water as sample template. • Quantitative PCR: preparation of reaction mixture according to PCR system; the reaction mixture was dispensed into a 384-well PCR reaction plate (specially for quantitative); and a standard template which was diluted in proportion was distributed into the plate; and the sample template was distributed into the plate; then the 384-well plate was sealed with closure plate membrane; the […] PCR machine was operated by procedures; data analysis. 3. Data Processing: the EC50 Values of Compounds were Analyzed by GraphPad Prism Software.

HCV GT1b replicon cells = test: HCV Replicon assay, GT1b replicon cells (Luciferase / NEO qPCR); format: cell-based; details: Hepatitis C virus, 72 hours incubation, read-out: EC50 against HCV 1b genotype
Method: as §1, §2, §3, §4

Row | Compound | EC50 (HCV GT1a replicon cells) [nM] | EC50 (HCV GT1b replicon cells) [nM]
1 | COC(=O)NC(C(=O)N1CCCC1c1nc(-c2ccc(-c3ccc(-c4c[nH]c(C5CCCN5C(=O)C(NC(=O)OC)C(C)C)n4)c4c3C3(CCCC3)CC4)cc2)c[nH]1)C(C)C (centres unmarked) [Example 54] | 3.57 | 0.044
2 | COC(=O)N[C@H](C(=O)N1CCC[C@H]1c1ncc(-c2ccc(-c3ccc(-c4ccc5nc([C@@H]6CCCN6C(=O)[C@@H](NC(=O)OC)c6ccccc6)[nH]c5c4)c4c3C3(CCCC3)CC4)cc2)[nH]1)c1ccccc1 [Example 19] | 0.376 | 0.011
3 | COC(=O)N[C@H](C(=O)N1CC(C)=C[C@H]1c1ncc(-c2ccc(-c3ccc(-c4cnc([C@@H]5C=C(C)CN5C(=O)[C@@H](NC(=O)OC)C(C)C)[nH]4)c4c3C3(CCCC3)CC4)cc2)[nH]1)C(C)C [Example 35] | 0.518 | 0.086
4 | COC(=O)N[C@H](C(=O)N1CCC[C@H]1c1ncc(-c2ccc(-c3ccc(-c4cnc([C@@H]5CCCN5C(=O)[C@@H](NC(=O)OC)C5CCCCC5)[nH]4)c4c3C3(CCCC3)CC4)cc2)[nH]1)C1CCCCC1 [Example 15] | 0.886 | 0.029
5 | COC(=O)N[C@H](C(=O)N1CCC[C@H]1c1ncc(-c2ccc(-c3ccc(-c4ccc5nc([C@@H]6CCCN6C(=O)[C@@H](NC(=O)OC)C(C)C)[nH]c5c4)c4c3CCCC43CCCC3)nc2)[nH]1)C(C)C [Example 45] | 0.107 | 0.034
6 | COC(=O)N[C@H](C(=O)N1C2CC2C[C@H]1c1ncc(-c2ccc(-c3ccc(-c4ccc(-c5cnc([C@@H]6CC7CC7N6C(=O)[C@@H](NC(=O)OC)C(C)C)[nH]5)cc4)c4c3CCC43CCCC3)cc2)[nH]1)C(C)C (some centres unmarked) [Example 23] | 0.334 | 0.012
7 | COC(=O)N[C@H](C(=O)N1CCC[C@H]1c1ncc(-c2ccc(-c3ccc(-c4ccc5[nH]c([C@@H]6CCCN6C(=O)[C@@H](NC(=O)OC)C(C)C)nc5c4)c4c3CCC43CCCC3)cc2)[nH]1)C(C)C [Example 4] | 0.085 | 0.029
8 | COC(=O)N[C@H](C(=O)N1CCC[C@H]1c1nc(-c2ccc(-c3ccc(-c4c[nH]c([C@@H]5CCCN5C(=O)[C@@H](NC(=O)OC)C(C)C)n4)c4c3C3(CCCC3)CC4)cc2)c[nH]1)C(C)C [Example 2] | 0.325 | 0.009
9 | COC(=O)N[C@H](C(=O)N1CCC[C@H]1c1nc2ccc(-c3ccc(-c4ccc5nc([C@@H]6CCCN6C(=O)[C@@H](NC(=O)OC)C(C)C)[nH]c5c4)c4c3CCC43CCC3)cc2[nH]1)C(C)C [Example 40] | 0.043 | 0.017
10 | COC(=O)N[C@H](C(=O)N1C[C@@H](C)C[C@H]1c1nc(-c2ccc(-c3ccc(-c4ccc5nc([C@@H]6C[C@H](C)CN6C(=O)[C@@H](NC(=O)OC)C(C)C)[nH]c5c4)c4c3C3(CCCC3)CC4)cc2)c[nH]1)C(C)C [Example 16] | 0.008 | 0.005
11 | COC(=O)N[C@H](C(=O)N1CCC[C@H]1C1=Nc2ccc(-c3cnc(-c4ccc(-c5cnc([C@@H]6CCCN6C(=O)[C@@H](NC(=O)OC)C(C)C)[nH]5)cc4)c4c3CCC43CCCC3)cc2S(=O)(=O)N1)C(C)C [Example 39] | 0.027 | 0.02
12 | COC(=O)N[C@H](C(=O)N1CCC[C@H]1c1ncc(-c2ccc(-c3ccc(-c4ccc5nc([C@@H]6CCCN6C(=O)[C@@H](NC(=O)OC)C(C)C)[nH]c5c4)c4c3CCCC43CCC3)s2)[nH]1)C(C)C [Example 41] | 0.876 | 0.043
13 | COC(=O)NC(C(=O)N1CCCC1c1ncc(-c2ccc(-c3ccc(-c4ccc5[nH]c(C6CCCN6C(=O)C(NC(=O)OC)C(C)C)nc5c4)c4c3CCC43CCCC3)cc2)[nH]1)C(C)C (centres unmarked) [Example 56] | 0.138 | 0.036
14 | COC(=O)N[C@H](C(=O)N1CCC[C@H]1c1nc(-c2ccc(-c3ccc(-c4ccc(-c5cnc([C@@H]6CCCN6C(=O)[C@@H](NC(=O)OC)C(C)C)[nH]5)cc4)c4c3CCC43CCCC3)cc2)c[nH]1)C(C)C [Example 6] | 1.37 | 0.208
15 | COC(=O)N[C@H](C(=O)N1CCC[C@H]1c1ncc(-c2ccc(-c3sc(-c4cnc([C@@H]5CCCN5C(=O)[C@@H](NC(=O)OC)C(C)C)[nH]4)c4c3C3(CCCC3)CC4)cc2)[nH]1)C(C)C [Example 47] | 3.57 | 0.687
16 | COC(=O)N[C@H](C(=O)N1CCC[C@H]1c1ncc(-c2ccc(-c3ccc(-c4cnc([C@@H]5CCCN5C(=O)[C@@H](NC(=O)OC)C(C)C)[nH]4)c4c3C3(CCC4)CCN(C)C3)cc2)[nH]1)C(C)C (some centres unmarked) [Example 50] | 0.875 | 0.096
17 | COC(=O)N[C@H](C(=O)N1C[C@@H](C)C[C@H]1c1ncc(-c2ccc(-c3ccc(-c4cnc([C@@H]5C[C@H](C)CN5C(=O)[C@@H](NC(=O)OC)C(C)C)[nH]4)c4c3C3(CCCC3)CC4)cc2)[nH]1)C(C)C [Example 14] | 0.785 | 0.011
18 | COC(=O)N[C@H](C(=O)N1CCC[C@H]1c1ncc(-c2ccc(-c3ccc(-c4ccc5[nH]c([C@@H]6CCCN6C(=O)[C@@H](NC(=O)OC)C(C)C)nc5c4)c4c3C3(CCCC3)CC4)cc2)[nH]1)C(C)C [Example 3] | 0.097 | 0.032
19 | COC(=O)N[C@H](C(=O)N1CCC[C@H]1c1ncc(-c2ccc(-c3ccc(-c4ccc5nc([C@@H]6CCCN6C(=O)[C@@H](NC(=O)OC)C(C)C)[nH]c5c4)c4c3CCC43CCCC3)c3ccccc23)[nH]1)C(C)C [Example 37] | 3.78 | 0.099
20 | COC(=O)N[C@H](C(=O)N1CCC[C@H]1c1ncc(-c2ccc(-c3ccc(-c4cnc([C@@H]5CCCN5C(=O)[C@@H](NC(=O)OC)C(C)C)[nH]4)c4c3C3(CCCO3)CCC4)cc2)[nH]1)C(C)C (some centres unmarked) [Example 51] | 4.57 | 0.086
21 | COC(=O)N[C@H](C(=O)N1CCS[C@H]1c1ncc(-c2ccc(-c3ccc(-c4cnc([C@@H]5SCCN5C(=O)[C@@H](NC(=O)OC)C(C)C)[nH]4)c4c3C3(CCCC3)CC4)cc2)[nH]1)C(C)C [Example 28] | 4.57 | 0.667
22 | COC(=O)N[C@H](C(=O)N1C[C@@H](F)C[C@H]1c1ncc(-c2ccc(-c3ccc(-c4cnc([C@@H]5C[C@H](F)CN5C(=O)[C@@H](NC(=O)OC)C(C)C)[nH]4)c4c3C3(CCCC3)CC4)cc2)[nH]1)C(C)C [Example 17] | 0.475 | 0.072
23 | COC(=O)N[C@H](C(=O)N1CCC[C@H]1c1ncc(-c2ccc(-c3ccc(-c4cnc([C@@H]5CCCN5C(=O)[C@@H](NC(=O)OC)C(C)C)[nH]4)c4c3CCC43CCCC3)cc2)[nH]1)C(C)C [Example 5] | 2.49 | 0.086
24 | COC(=O)N[C@H](C(=O)N1CCCC[C@H]1c1ncc(-c2ccc(-c3ccc(-c4cnc([C@@H]5CCCCN5C(=O)[C@@H](NC(=O)OC)C(C)C)[nH]4)c4c3C3(CCCC3)CC4)cc2)[nH]1)C(C)C [Example 26] | 13.7 | 0.088
25 | CC(C)[C@H](NC(=O)N1CCOCC1)C(=O)N1CCC[C@H]1c1ncc(-c2ccc(N3CCC(c4cnc([C@@H]5CCCN5C(=O)[C@@H](NC(=O)N5CCOCC5)C(C)C)[nH]4)CC3)c3c2CCC32CCCC2)[nH]1 [Example 8] | 5.44 | 1.33
